Laboratory results taken from PubChem BioAssay (NCI).
Several values for one entry are separate records, joined by “and”; a condition that tells them apart may be missing. Equal values may be shown once.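 Growth conditions: 96-well plates. Treatment: test compound, 48 hours, 5 concentrations. Analysis: linear interpolation between bracketing concentrations; unreached endpoints set to highest concentration. GI50 marks 50% less growth. Definition used: TGI = concentration required for complete inhibition of growth.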

System: MDA-MB-468 breast
Test: growth of human tumour cells (NCI), 48 h

Compound | GI50 | TGI
Cn1c(=O)c2[nH]c(COc3ccc(C(C)(C)C)cc3)nc2n(C)c1=O | 8.08 µM | 72.3 µM
COc1ccc(-c2ccc(-c3ccc(C(=N)N)cn3)s2)cc1Cl | 1.57 µM | 3.15 µM
C[Se]C(=O)CC1=C2C=C(F)C=CC2/C(=C\c2ccc(S(C)=O)cc2)C1C (configuration not stated) | 0.134 µM | 1.41 µM
CCNCCNc1cc(-c2ccc(F)cc2)c(C#N)c2nc3ccccc3n12 | 1.85 µM | 4.12 µM
O=C(Nc1cc(Cl)cc(Cl)c1)Nc1ccc2oc(=O)ccc2c1 | 2.81 µM | 7.45 µM
O=C(/C=C/c1ccco1)Nc1ncc(Cc2ccc(F)cc2)s1 | 0.142 µM | > 25.2 µM
Fc1ccc(-c2ncn(C3CCNCC3)c2-c2ccnc(Oc3cccc(F)c3)n2)cc1 | 2.61 µM | 6.82 µM
NC(CSC(c1ccccc1)(c1ccccc1)c1ccc2ccccc2c1)C(=O)O (configuration not stated) | 0.045 µM | 22.3 µM
CC#CC(=O)N1CCC[C@H]1c1nc(-c2ccc(C(=O)Nc3ccccn3)cc2)c2c(N)nccn12 | 19 µM | > 76 µM
O=c1[nH]c(-c2ccc(C(F)(F)F)cc2)nc2c1CSCC2 | 36.1 µM | > 100 µM
COc1cc(C2C(C#N)=C(N)OC3=C2C(=O)c2ccccc2C3=O)cc(OC)c1OC (configuration not stated) | 2.26 µM | 6.64 µM
C#Cc1ccc(NC(=O)c2ccc(/C=C/C(=O)c3nccn3C)cc2)cc1 | 0.4 µM | 0.918 µM
COc1ccc(/C=C2\N=C3SC=C(N)N3C2=O)cc1 | 0.291 µM | 1.66 µM
COc1ccc(C(O)c2cc3c(N)c(C(=O)Nc4cccc(Br)c4)sc3nc2C)cc1 (configuration not stated) | 0.0969 µM | 
CCCC[C@@H](COC(=O)N(Cc1cccs1)Cc1cccs1)NC(=O)N[C@@H](CC(=O)OC)c1ccc2c(c1)OCO2 | > 100 µM | > 100 µM
Cn1ccnc1C(=O)/C=C/c1ccc(C(=O)Nc2nc3ccccc3[nH]2)cc1 | 1.29 µM | > 25 µM
O=C1/C(=C/c2cccs2)CCC/C1=C\c1cccs1 | 0.577 µM | 14.9 µM
Oc1c(CN2CCCC2)cc(COCc2ccccc2)c2cccnc12 | 2.3 µM | 6.14 µM
COc1ccc2c(c1)OC13Oc4cc(OC)ccc4C=C1CCCC3=C2 | > 100 µM | > 100 µM
FC(F)(F)c1ccc(-c2cnc(Br)nc2NC2CCCCCC2)cc1 | 24.9 µM | > 100 µM
COc1ccc(/C=C\c2cc(OC)c(OC)c(OC)c2)c(NS(=O)(=O)c2ccc(C)cc2)c1O | 0.0261 µM | 0.711 µM
COc1ccc2c3c(c(OCCCN(C)C)nc2c1)-c1ccc(Cl)cc1C3=O | 4.7 µM | 19.5 µM

Compound | GI50 | TGI
C#Cc1nc(/C=C\CCCCCCC(=O)NO)cs1 | 1.19 µM | 3.12 µM
C[C@@H]1CC[C@@]2(OC1)O[C@H]1C[C@H]3[C@@H]4CC=C5C[C@@H](O[C@@H]6O[C@H](CO)[C@@H](O[C@@H]7O[C@@H](CO)[C@H](O)[C@H]7O)[C@H](O)[C@H]6O[C@@H]6O[C@@H](C)[C@H](O)[C@@H](O)[C@H]6O)CC[C@]5(C)[C@H]4CC[C@]3(C)[C@H]1[C@@H]2C | 0.361 µM | 1.45 µM
Oc1ccccc1-n1c(-c2ccccc2)ccc1-c1ccccc1 | 3.3 µM | 15.7 µM
COc1ccc(/C=C(\C#N)c2cc3ccccc3n2C)cc1 | 0.273 µM | 1.99 µM
COc1ccccc1-n1c(SCc2cc(OC)c(OC)c(OC)c2)nc2ccc(Cl)cc2c1=O | 0.895 µM | 8.99 µM
N#Cc1nc(-c2ccccc2)oc1S(=O)(=O)N1CCOCC1 | 2.21 µM | 6.21 µM
O=C(/C=C\c1ccnc2ccccc12)c1ccc([N+](=O)[O-])cc1 | 1.04 µM | 9.09 µM
CCS/C(Nc1ccccc1)=C(\C#N)C(=O)Nc1ccc(OC)cc1 | 1.39 µM | 7.51 µM
CCSC1=CC(=O)c2ccccc2C1=O | 0.18 µM | 0.417 µM
c1ccc(-c2nc(N3CCNCC3)c3nc(-c4ccccc4)oc3n2)cc1 | 1.93 µM | 3.66 µM
Cc1nc(NC(=O)N2CCC[C@H]2C(N)=O)sc1-c1ccnc(C(C)(C)C(F)(F)F)c1 | 0.309 µM and 0.596 µM | 6.97 µM and > 10 µM
O=C(CCN1CCCC1)Nc1ccc2c(NCCCc3ccccc3)c3ccccc3nc2c1 | 0.477 µM | 1.7 µM
C=C1C(C)C2C(Cc3ccccc3)NC(=O)C23C(OC(C)=O)/C=C/C(C)(O)CC(C)C/C=C/C3C1O (configuration not stated) | 0.199 µM | > 100 µM
CC(C)(C)CC(C)(C)c1ccc(OCCOCCSC(=N)N)cc1 | 1.59 µM | 3.32 µM
CC[C@H](C)[C@H](NC(=O)C12C3C4C1C1C2C3C41NC(C)=O)C(=O)N(C)[C@H](C[C@@H](OC(C)=O)c1nc(C(=O)N[C@@H](Cc2ccccc2)C[C@H](C)C(=O)OC)cs1)C(C)C (some centres not stated) | 0.081 µM | > 3.98 µM
COC(=O)CCC1=C(C)c2cc3[n-]c(cc4nc(cc5[n-]c(cc1n2)c(CCC(=O)OC)c5C)C=C4C)cc3C.[Cd+2] | 3.29 µM | 12 µM
COc1ccc(NC(=O)c2cc(OC)c(OC)c(OC)c2)cc1O | 0.861 µM | 15.8 µM
CN(Cc1cnc2nc(N)nc(N)c2n1)c1ccc(C(=O)NC(CCC(=O)O)C(=O)O)cc1 (configuration not stated) | 0.112 µM | > 100 µM
O=Nc1c(O)ccc2ccccc12 | 4.51 µM | 25.3 µM
CC(=O)N1CC(F)(F)c2c(Sc3ncc(N4CCC5(CC4)COC[C@H]5N)nc3N)cccc21 | 14.8 µM | 50.5 µM
CC/C=C\CCC/C=C1/C(=O)C=C[C@@H]1C/C=C\CCCC(=O)O | 4.61 µM | 18.7 µM
CN(C)c1ccc(/C=C/c2ccnc3ccccc23)cc1 | 0.298 µM | 16.9 µM
